{"source": "paper PMC10449632", "about": "“Structural basis for translation inhibition by the glycosylated drosocin peptide” (Nature Chemical Biology, 2023)", "key": {"[1]": {"tested_on": "E. coli Keio ∆sbmA (BW25113 ΔsbmA)", "experiment": "Antibiotic susceptibility (growth) assay, E. coli Keio ΔsbmA", "format": "cell-based, Escherichia coli", "details": "30 μM peptide, average of three biological replicates", "description": "Many PrAMPs use the SbmA transporter to pass through the E. coli inner membrane[4],[10],[31]; however, whether drosocin also uses SbmA remains, to our knowledge, unknown. To address this, we monitored the effect of the presence of diverse drosocin peptides (Fig. 1a,b and Supplementary Fig. 1a) on the growth of the wild-type E. coli strain BW25113 containing SbmA or lacking SbmA (ΔsbmA) (Fig. 1c,d). We compared unmodified drosocin (Dro) with various modified forms (Fig. 1a,b). The modified forms included the naturally occurring Dro1 and Dro2 that carry either a monosaccharide (α-D-GalNAc) or disaccharide (β-D-Gal(1→3)-α-D-GalNAc) attached to Thr11, respectively (Fig. 1b). In addition, we examined the previously reported[23],[24] drosocin derivatives bearing β-D-Maltosyl (Dro3), α-D-GlcNAc (Dro4), β-D-Gal (Dro5), β-D-Glc (Dro6), β-D-Lactosyl (Dro7) and β-D-Cellobiosyl (Dro8) modifications on Thr11 (Fig. 1a,b and Supplementary Fig. 1a). Finally, we also included in our analysis the synthetic unmodified drosocin derivative with proline substitutions at positions 7, 11 and 12 (Dro-3P) (Fig. 1a), which was previously reported to have similar antimicrobial activity to the monosaccharide form of drosocin[25]. Growth was monitored in both rich (LB) and minimal medium in the presence of 30 μM of each peptide and normalized with the growth in the absence of the compounds (Methods). […] We also observed no inhibition for Dro2 nor for any of the β-linked disaccharides (Dro3, Dro6 or Dro7). […] By contrast, all drosocin peptides inhibited growth of the E. coli BW25113 strain in minimal medium, albeit to different extents (Fig. 1d).\n(§1) Strains E. coli Keio wild-type and E. coli Keio ΔsbmA used from the Keio knockout collection (Horizon, https://horizondiscovery.com). Wild-type E. coli SQ110 (ΔrrnGADBHC(ptRNA67))[47] and SQ171 (ΔrrnGADEHBC(pKK3535, ptRNA67))[47] strains and related mutants E. coli SQ110 A2059G and E. coli SQ171 A2503G were obtained from the previous Api137 study. E. coli strains SQ171 bearing A752G, U2609C and A752G:U2609C mutations[43] and E. coli SQ171 U2609G[48] were generated previously.\n(§2) The susceptibility of E. coli strains to compounds was evaluated by monitoring the bacterial growth in presence of increasing concentrations of the compound of interest. In brief, bacteria were inoculated in a total volume of 100 μl of medium contained in a well of a 96-well microplate (round bottom, with cap, sterile; Sarstedt). The medium used was either LB, as rich medium, or ATCC medium (778 Davis and Mingioli glucose minimal medium), as minimal medium. Before inoculation, bacteria were grown up to exponential phase and then inoculated into the culture mix, containing selective antibiotic if necessary, with an initial optical density at 600 nm (OD600) of 0.05. Values measured from wells containing just the medium were used as a blank. The growth in each well was monitored by measuring the OD600 every 10 minutes for a total of 20 hours at 37 °C with shaking using a plate reader (Tecan Infinite 200 PRO). The inhibition resulting from a compound’s concentration was evaluated by normalizing the OD600 at t = 12 hours (corresponding to the end of the log phase) from the treated culture to the untreated one. For each compound, the concentrations tested were 5 μM, 10 μM and 30 μM. Each single titration assay was done in triplicate with individually prepared culture mixes. For each concentration, the standard deviation was calculated, taking into account each single replica and its specific technical error from the plate reader."}, "E. coli SQ171 wt": {"tested_on": "E. coli SQ171 wt", "experiment": "Antibiotic susceptibility (growth) assay, E. coli SQ171 wt", "format": "cell-based, Escherichia coli", "details": "relative to no compound, mean of 3 replicas", "description": "as §1, §2"}, "[2]": {"tested_on": "in vitro translation, E. coli PURExpress system, firefly luciferase (Fluc) mRNA", "experiment": "In vitro translation assay with Fluc reporter", "format": "biochemical, Escherichia coli", "details": "Fluc mRNA, luminescence; for maximum inhibition of in vitro translation: at the highest concentration tested of 150 μM", "description": "To investigate this, we compared the effect of increasing concentrations (0–150 μM) of modified Dro1 and Dro2 with unmodified Dro, Dro-3P and Api137 using a cell-free in vitro translation system and firefly luciferase (Fluc) mRNA as a template (Fig. 1e), as we have used previously for assessing the activity of other PrAMPs[4],[6],[8],[9],[32],[33].\nThe in vitro translation assay was carried out as described previously[4],[8] using the E. coli PURExpress system (New England Biolabs (NEB), E6800S). Then, 1 µl of antibiotic solution was added to 5 µl of PURExpress reaction mix. Each reaction contained 10 ng μl^−1 of mRNA encoding the Fluc, which was in vitro transcribed from a pIVEX-2.3MCS vector containing the Fluc gene using T7 polymerase (Thermo Fisher Scientific). The reaction mix was incubated for 30 minutes at 32 °C while shaking (600 r.p.m.). Reactions were stopped with 5 µl of kanamycin (50 mg ml^−1) and transferred into a 96-well microplate (Greiner Lumitrac, non-binding, white, chimney). Next, 40 µl of luciferase assay substrate solution (Promega, E1501) was added, and luminescence was measured using a plate reader (Tecan Infinite 200 PRO). Nuclease-free water was added instead of antibiotic as control. Absolute luminescence values were normalized using reactions without antibiotic. All assays were done as triplicates with individually prepared reaction mix."}}, "note": "No end group written: not given here. *: point of attachment. αGalNAc = CC(=O)N[C@@H]1[C@@H](O)[C@@H](O)[C@@H](CO)O[C@@H]1*"}
{"substance": "Dro1: naturally occurring drosocin carrying monosaccharide α-D-GalNAc attached to Thr11 (GKPRPYSPRPT(αGalNAc)SHPRPIRV; UniProt P36193 22-40, looked up)", "values": [{"measurement": "Average of normalized growth", "setting": "[1]; LB rich medium", "result": 99, "unit": "%"}, {"measurement": "Average of normalized growth", "setting": "[1]; Minimal medium", "result": 106, "unit": "%"}, {"measurement": "OD600 at t = 12 h, Normalized, Average", "setting": "E. coli SQ171 wt; 5 μM", "result": 93, "unit": "%"}, {"measurement": "OD600 at t = 12 h, Normalized, Average", "setting": "E. coli SQ171 wt; 30 μM", "result": 11, "unit": "%"}, {"measurement": "IC50", "setting": "[2]; 0–150 μM peptide, 30 minutes at 32 °C, triplicate, read-out: half maximal inhibitory concentration (IC50), in vitro translation", "result": "78 ± 13", "unit": "µM"}, {"measurement": "maximum inhibition of in vitro translation", "setting": "[2]", "result": 60, "unit": "%"}]}
{"substance": "Dro: unmodified drosocin, 19 amino acid proline-rich antimicrobial peptide lacking O-glycosylation (GKPRPYSPRPTSHPRPIRV; Drosocin; UniProt P36193 22-40, looked up)", "values": [{"measurement": "Average of normalized growth", "setting": "[1]; LB rich medium", "result": 102, "unit": "%"}, {"measurement": "Average of normalized growth", "setting": "[1]; Minimal medium", "result": 102, "unit": "%"}, {"measurement": "OD600 at t = 12 h, Normalized, Average", "setting": "E. coli SQ171 wt; 5 μM", "result": 86, "unit": "%"}, {"measurement": "OD600 at t = 12 h, Normalized, Average", "setting": "E. coli SQ171 wt; 30 μM", "result": 72, "unit": "%"}, {"measurement": "maximum inhibition of in vitro translation", "setting": "[2]", "result": 20, "unit": "%"}]}
